What was measured:
[1] = molecular target: T1, Staphylococcus aureus glycyl tRNA synthetase (GRS), SEQ ID NO:1 (Staphylococcus aureus, UniProt P99129); test: Stopped-flow tryptophan fluorescence measurement of inhibitor binding to GRS
T1 construct: purified enzyme or crude lysate; homodimer
T1 sequence (P99129 1-463): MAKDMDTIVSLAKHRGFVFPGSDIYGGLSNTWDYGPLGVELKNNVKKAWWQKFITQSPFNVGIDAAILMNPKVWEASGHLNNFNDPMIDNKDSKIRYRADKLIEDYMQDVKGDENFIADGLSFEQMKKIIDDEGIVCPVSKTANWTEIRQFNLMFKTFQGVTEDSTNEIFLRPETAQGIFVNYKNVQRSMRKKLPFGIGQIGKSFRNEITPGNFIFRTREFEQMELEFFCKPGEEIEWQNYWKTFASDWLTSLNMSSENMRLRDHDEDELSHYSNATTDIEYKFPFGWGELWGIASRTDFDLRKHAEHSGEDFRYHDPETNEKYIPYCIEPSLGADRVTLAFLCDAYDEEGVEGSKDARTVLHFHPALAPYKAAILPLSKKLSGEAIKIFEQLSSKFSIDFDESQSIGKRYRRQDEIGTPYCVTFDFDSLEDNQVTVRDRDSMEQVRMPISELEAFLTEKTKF
Source text: (§1) Glycylsulfmoyladenosine is an analogue of the Gly-AMP reaction intermediate and inhibits GRS catalytic activity as measured by any of the techniques described in the examples below. Estimates of the potency of inhibition are obtained by performing enzyme assays in the presence of a range of inhibitor concentrations, and fitting the effect of inhibitor concentration on enzyme velocity to a four parameter logistic function that allows calculation of an IC50 (the inhibitor concentration at which GRS activity is reduced by half). […] Binding of glycylsulfamoyladenosine to GRS can also be measured directly using stopped-flow fluorescence techniques because enzyme:inhibitor binary complex has around 5% higher tryptophan fluorescence than the free enzyme. Experiments of this type yield the following elementary rate constants for inhibitor binding; kon =1.1×10^6 s^-1.M^-1, koff =2.9s ^-1 .
(1) Effects of ligand binding upon enzyme intrinsic fluorescence (e.g. of tryptophan). Binding of either natural ligands or inhibitors may result in enzyme conformational changes which alter enzyme fluorescence. Using stopped-flow fluorescence equipment, this can be used to define the microscopic rate constants that describe binding. Alternatively, steady-state fluorescence titration methods can yield the overall dissociation constant for binding in the same way that these are accessed through enzyme inhibition experiments.

[2] = molecular target: T1, Staphylococcus aureus glycyl tRNA synthetase (GRS), SEQ ID NO:1; test: Aminoacylation assay of GRS catalytic activity in the presence of a range of inhibitor concentrations; type: biochemical; details: S. aureus GRS; four parameter logistic fit; tRNA acylation with radiolabelled glycine, 37° C.; read-out: IC50 (the inhibitor concentration at which GRS activity is reduced by half)
Source text: as §1
Assays were performed either using purified S. aureus GRS overexpressed in E. coli, or using crude cell lysate from E. coli overexpressing GRS. The latter contained around 10% of total protein as GRS. Enzyme was stored at -70° C. in 50 mM Tris-HCl buffer (pH 7.8), 10 mM MgCl2 and 10 mM B-mercaptoethanol after flash freezing in liquid N2. […]
The assay procedure was as follows. […] The filters were dried at 70° C. for 1 hour and the levels of radioactivity measured by scintillation counting (Packard Topcount). […]

Work on NCC(=O)NS(=O)(=O)OC[C@H]1O[C@@H](n2cnc3c(N)ncnc32)[C@H](O)[C@@H]1O [glycylsulfamoyladenosine, 5'-O-Glycylsulfamoyladenosine] yielded a koff [1] of 2.9 s⁻¹, a kon [1] of 1.1e+06 M⁻¹ s⁻¹ and a Kd ([1]; estimate from the ratio of koff and kon) of 2600 nM. It also gave an IC50 [2] of about 2400 nM.

From US6197495A, “Methods using the staphylococcus aureus glycyl tRNA synthetase crystalline structure” (SmithKline Beecham Corporation, priority 1998, dated 2001)
